These results are taken from patent publication US20090035306A1 (KALYPSYS, INC., priority 2006, published 2009).

This test addresses T1, human TGR5 (Homo sapiens, UniProt Q8TDU6).
T1 construct: expressed in transfected cells
T1 sequence (Q8TDU6 1-330): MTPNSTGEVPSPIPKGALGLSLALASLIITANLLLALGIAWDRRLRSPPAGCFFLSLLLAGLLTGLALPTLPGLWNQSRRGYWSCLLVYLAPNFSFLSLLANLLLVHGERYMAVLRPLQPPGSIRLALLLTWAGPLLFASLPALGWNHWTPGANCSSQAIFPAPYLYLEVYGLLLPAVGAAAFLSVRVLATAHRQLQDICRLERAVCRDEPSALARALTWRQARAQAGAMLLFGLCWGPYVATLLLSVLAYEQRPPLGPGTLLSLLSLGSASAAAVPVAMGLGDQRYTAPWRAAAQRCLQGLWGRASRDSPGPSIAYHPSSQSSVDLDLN
In words: cAMP production assay in HEK293 cells stably expressing TGR5 (LANCE TR-FRET). Type of test: cell-based. To be noted: 30 minutes stimulation, read-out: cAMP Production in 293-TGR5 Cells EC50. On the procedure: HEK293 cells stably expressing TGR5 (HEK293-TGR5) were established by stably transfecting HEK-293 cells with an expression vector (pcDNA 3.1, Invetrogen) inserted with human TGR5 cDNA using Fugene6 (Roche, Indianapolis, Ind.) according to conventional methods. Cells were grown in DMEM (invitrogen, Carlsbad, Calif.) supplemented with 10% FBS, 1% penicillin/streptomycin under geneticin selection. The presence of TGR5 transcripts in these cells was confirmed using branched DNA (bDNA, Genospectra, Inc., Fremont Calif.) following the manufacturer's protocol and using specific probes for human TGR5. cAMP production assay was performed in high throughput 1536 well format using LANCE cAMP detection kit (Perkin Elmer Inc., Boston, Mass.) according to the manufacturer's protocol. Briefly, HEK293-TGR5 cells were harvested using non-enzymatic cell dissociation buffer (Invitrogen, Carlsbad, Calif.) and suspended in DMEM supplemented with 0.1% FBS at a density of 800,000 cells/ml. Alexa antibody was added to the cell suspension, and 4 ul of the mixture was dispensed in white opaque tissue culture treated Greiner 1536 well plates (USA Scientific, Inc., Ocala, Fla.). After an overnight incubation at 37 C in an atmosphere of 10% CO2 and 95% humidity, 1 ul of 5 mM IBMX (Sigma, St. Louis, Mo.) solution in DMEM was dispensed for a final concentration of 1 mM. Cells were then stimulated with test compounds for 30 minutes, after which time 5 ul of detection reagent was added and incubated for 1-7 hrs at room temperature. TR-FRET signal was detected using the Viewlux (Perkin Elmer Inc., Boston Mass.). EC50 values were determined using Graph Pad Prizm analysis (GraphPad Software, Inc). The EC50 values for a wide range of bile acids generated from this assay were in agreement with the values published in the scientific literature. […] The symbol (+) denotes an EC50 value of ≦10 μM while the symbol (−) denotes an EC50 value of >10 μM (see Table 1).
For orientation: Changes in cAMP serve as a functional read-out for many G protein-coupled receptors.

Structures are written as SMILES.

As for `COc1ccc2c(=O)n(NCc3ccc(C(F)(F)F)cc3)c(-c3ccc(F)cc3)nc2c1` [Example 36, 2-(4-fluorophenyl)-7-methoxy-3-(4-(trifluoromethyl)benzylamino)quinazolin-4(3H)-one], the EC50 – broadly, the concentration needed to bring the measured effect to its halfway point – is more than 10 µM.

Turning to `O=c1c2ccccc2nc(-c2ccccc2F)n1NCc1ccc(F)cc1F` [Example 12, 3-(2,4-difluorobenzylamino)-2-(2-fluorophenyl)quinazolin-4(3H)-one], the EC50 was not above 10 µM.

For the molecule `O=c1c2ccccc2nc(-c2ccccc2F)n1NCc1cccc(Br)c1` [Example 3, 3-(3-bromobenzylamino)-2-(2-fluorophenyl)quinazolin-4(3H)-one], the EC50 was not above 10 µM.

On to `O=c1c2ccccc2nc(CCc2ccccc2)n1NCc1ccc(F)cc1F` [Example 16, 3-(2,4-difluorobenzylamino)-2-phenethylquinazolin-4(3H)-one], for which the EC50 was not above 10 µM.

As to `O=c1c2ccccc2nc(-c2ccccc2F)n1NCc1cccc(C(F)(F)F)c1` [Example 20, 2-(2-fluorophenyl)-3-(3-(trifluoromethyl)benzylamino)quinazolin-4(3H)-one], the EC50 is not above 10 µM.

As for `O=c1c2ccccc2nc(-c2cccc(F)c2)n1NCc1ccc(Br)cc1` [Example 105, 3-(4-bromobenzylamino)-2-(3-fluorophenyl)quinazolin-4(3H)-one], the EC50 is not above 10 µM.

For `O=c1c2ccccc2nc(-c2ccc(Cl)cc2)n1NCc1ccc(F)c(F)c1` [Example 53, 2-(4-chlorophenyl)-3-(3,4-difluorobenzylamino)quinazolin-4(3H)-one], the EC50 was not above 10 µM.

With `O=c1c2ccccc2nc(-c2ccco2)n1NCc1ccc(Br)cc1` [Example 40, 3-(4-bromobenzylamino)-2-(furan-2-yl)quinazolin-4(3H)-one], the EC50 was not above 10 µM.

`O=c1c2ccccc2nc(-c2cccc(Cl)c2)n1NCc1ccc(F)c(F)c1` [Example 50, 2-(3-chlorophenyl)-3-(3,4-difluorobenzylamino)quinazolin-4(3H)-one]: the EC50 is not above 10 µM.

For the molecule `O=c1c2cc(F)ccc2nc(-c2cccc(F)c2)n1NCc1ccc(Br)cc1` [Example 106, 3-(4-bromobenzylamino)-6-fluoro-2-(3-fluorophenyl)quinazolin-4(3H)-one], the EC50 is not above 10 µM.

For the molecule `Cc1ccc2c(=O)n(NCc3ccc(Br)cc3)c(-c3ccc(F)cc3)nc2c1` [Example 81, 3-(4-bromobenzylamino)-2-(4-fluorophenyl)-7-methylquinazolin-4(3H)-one], the EC50 was not above 10 µM.

As to `COc1cc(-c2nc3ccccc3c(=O)n2NCc2ccc(Cl)cc2)ccc1O` [Example 100, 3-(4-chlorobenzylamino)-2-(4-hydroxy-3-methoxyphenyl)quinazolin-4(3H)-one], the EC50 is not above 10 µM.

In the case of `CN(C)c1ccc(-c2nc3ccccc3c(=O)n2NCc2ccc(Br)cc2)cc1` [Example 42, 3-(4-bromobenzylamino)-2-(4-(dimethylamino)phenyl)quinazolin-4(3H)-one], the EC50 is more than 10 µM.

As to `O=c1c2ccccc2nc(-c2cccs2)n1NCc1ccc(C(F)(F)F)cc1` [Example 87, 2-(thiophen-2-yl)-3-(4-(trifluoromethyl)benzylamino)quinazolin-4(3H)-one], the concentration giving a half-maximal response (EC50) was not above 10 µM.

For the molecule `O=c1c2cc(F)ccc2nc(-c2cccc(F)c2)n1NCc1ccccc1` [Example 103, 3-(benzylamino)-6-fluoro-2-(3-fluorophenyl)quinazolin-4(3H)-one], the EC50 was not above 10 µM.

Consider `Cc1cc(-c2nc3ccccc3c(=O)n2NCc2ccc(Cl)cc2)ccc1F` [Example 57, 3-(4-chlorobenzylamino)-2-(4-fluoro-3-methylphenyl)quinazolin-4(3H)-one], for which the EC50 is not above 10 µM.

Consider `Cc1cc(-c2nc3ccccc3c(=O)n2NCc2ccc(Br)cc2)ccc1F` [Example 54, 3-(4-bromobenzylamino)-2-(4-fluoro-3-methylphenyl)quinazolin-4(3H)-one], for which the EC50 was not above 10 µM.

As for `O=c1c2ccc(O)cc2nc(-c2ccc(F)cc2)n1NCc1ccc(Br)cc1` [Example 95, 3-(4-bromobenzylamino)-2-(4-fluorophenyl)-7-hydroxy quinazolin-4(3H)-one], the EC50 is not above 10 µM.

In the case of `COc1cc(-c2nc3ccccc3c(=O)n2NCc2ccc(Br)cc2)ccc1O` [Example 99, 3-(4-bromobenzylamino)-2-(4-hydroxy-3-methoxyphenyl)quinazolin-4(3H)-one], the half-maximal effective concentration (EC50) was not above 10 µM.

As for `O=c1c2cccc(O)c2nc(-c2ccc(F)cc2)n1NCc1ccc(Br)cc1` [Example 113, 3-(4-bromobenzylamino)-2-(4-fluorophenyl)-8-hydroxyquinazolin-4(3H)-one], the EC50 is not above 10 µM.

For the molecule `COc1ccccc1-c1nc2ccccc2c(=O)n1NCc1ccc(Br)cc1` [Example 19, 3-(4-bromobenzylamino)-2-(2-methoxyphenyl)quinazolin-4(3H)-one], the EC50 is more than 10 µM.

Take `O=c1c2ccccc2nc(-c2ccc(O)nc2)n1NCc1ccc(Br)cc1` [Example 117, 3-(4-bromobenzylamino)-2-(6-hydroxypyridin-3-yl)quinazolin-4(3H)-one]: the EC50 was not above 10 µM.

For the molecule `Cc1ccc(-c2nc3ccccc3c(=O)n2NCc2ccc(Cl)cc2)cc1Cl` [Example 110, 2-(3-chloro-4-methylphenyl)-3-(4-chlorobenzylamino)quinazolin-4(3H)-one], the EC50 is not above 10 µM.

For `Cc1ccc(-c2nc3ccccc3c(=O)n2NCc2ccc(Br)cc2)cc1Cl` [Example 109, 3-(4-bromobenzylamino)-2-(3-chloro-4-methylphenyl)quinazolin-4(3H)-one], the EC50 was not above 10 µM.

Regarding `O=c1c2ccccc2nc(-c2ccc(F)cc2)n1NCc1ccc(F)cc1F` [Example 80, 3-(2,4-difluorobenzylamino)-2-(4-fluorophenyl)quinazolin-4(3H)-one], the EC50 is not above 10 µM.

Turning to `O=c1c2cc(O)ccc2nc(-c2ccc(F)cc2)n1NCc1ccc(Cl)cc1` [Example 98, 3-(4-chlorobenzylamino)-2-(4-fluorophenyl)-6-hydroxyquinazolin-4(3H)-one], the EC50 is not above 10 µM.

`O=c1c2ccc(F)cc2nc(-c2ccc(F)cc2)n1NCc1ccc(Cl)cc1` [Example 108, 3-(4-chlorobenzylamino)-7-fluoro-2-(4-fluorophenyl)quinazolin-4(3H)-one]: the EC50 was not above 10 µM.

Turning to `O=c1c2ccccc2nc(-c2cccc(Cl)c2)n1NCc1ccc(C(F)(F)F)cc1` [Example 49, 2-(3-chlorophenyl)-3-(4-(trifluoromethyl)benzylamino)quinazolin-4(3H)-one], the EC50 is not above 10 µM.

As for `CC(C)c1ccc(CNn2c(-c3ccc(F)cc3)nc3ccccc3c2=O)cc1` [Example 2, 2-(4-fluorophenyl)-3-(4-isopropylbenzylamino)quinazolin-4(3H)-one], the EC50 is more than 10 µM.

As for `O=c1c2ccccc2nc(-c2ccc(Cl)cc2)n1NCc1ccc(C(F)(F)F)cc1` [Example 52, 2-(4-chlorophenyl)-3-(4-(trifluoromethyl)benzylamino)quinazolin-4(3H)-one], the EC50 was not above 10 µM.

On to `COc1cc(-c2nc3ccccc3c(=O)n2NCc2ccc(Cl)cc2)ccc1C` [Example 66, 3-(4-chlorobenzylamino)-2-(3-methoxy-4-methylphenyl)quinazolin-4(3H)-one], for which the EC50 is not above 10 µM.
